Laboratory results: ChEMBL document CHEMBL1833934, “Discovery and optimization of 1-(4-(pyridin-2-yl)benzyl)imidazolidine-2,4-dione derivatives as a novel class of selective cannabinoid CB2 receptor agonists” (J Med Chem, 2011)

Assays:
[1] = Oral bioavailability in Wistar BRL rat at 5 mg/kg; type: ADME, organism-based; settings: in vivo
[2] = Lipophilicity, log D of the compound; type: physicochemical; settings: octanol/water
[3] = Dissociation constant, pKa of the compound; type: physicochemical
[4] = Apparent permeability across human Caco2 cell membrane at 20 uM after 1 hr by LC-MS/MS analysis; settings: Caco-2
[5] = Volume of distribution at steady state in Wistar BRL rat plasma at 1 mg/kg, iv and 5 mg/kg, po; type: ADME, organism-based; settings: read-out: Vdss
[6] = Cmax in Wistar BRL rat plasma at 5 mg/kg, po; type: ADME, organism-based; set-up: dose 5 mg/kg, route oral
Rattus norvegicus = test: Unbound Cmax in Wistar BRL rat plasma at 5 mg/kg, po; type: ADME, organism-based; set-up: dose 5 mg/kg, route oral; settings: in vivo
in vivo [7] = settings: Wistar BRL, rat, brain, po, 20 mg/kg
in vivo [8] = settings: Wistar BRL, rat, cerebrospinal fluid, po, 20 mg/kg

SMILES	logD [2]	pKa [3]	also measured
CC(C)CN1C(=O)CN(Cc2ccc(-c3cccc(CN4CCCCC4)n3)cc2)C1=O	2.8	8.9	bioavailability [1]: 4%; Papp at 1 h, 20 µM [4]: 21 ×10⁻⁶ cm/s; Vd [5]: 5.4 L/kg; Cmax [6]: 20 nM; fCmax (Rattus norvegicus): 0.006 µM
CCCN1C(=O)CN(Cc2ccc(-c3cccc(CN4CCCCC4)n3)cc2)C1=O	2.2	8.8	
CCN1C(=O)CN(Cc2ccc(-c3cccc(CN4CCCCC4)n3)cc2)C1=O	1.7	8.8	
CN1C(=O)CN(Cc2ccc(-c3cccc(CN4CCCCC4)n3)cc2)C1=O	1.3	8.7	
CC(C)N1C(=O)CN(Cc2ccc(-c3cccc(CN4CCCCC4)n3)cc2)C1=O	2.2		
O=C1CN(Cc2ccc(-c3cccc(CN4CCCCC4)n3)cc2)C(=O)N1C1CC1	1.6	9	
O=C1CN(Cc2ccc(-c3cccc(CN4CCCCC4)n3)cc2)C(=O)N1C1CCC1	2.7		
O=C1CN(Cc2ccc(-c3cccc(CN4CCCCC4)n3)cc2)C(=O)N1CC1CC1	2.5	8.9	
O=C1CN(Cc2ccc(-c3cccc(CN4CCCCC4)n3)cc2)C(=O)N1CC(F)F	1.6	8.9	
O=C1CN(Cc2ccc(-c3cccc(CN4CCCCC4)n3)cc2)C(=O)N1CC(F)(F)F	1.9		
CCN1C(=O)CN(Cc2ccc(-c3ccc(F)c(CN4CCCCC4)n3)cc2)C1=O	2.1	8.5	
CCCN1C(=O)CN(Cc2ccc(-c3ccc(F)c(CN4CCCCC4)n3)cc2)C1=O	2.5	8.5	
CC(C)CN1C(=O)CN(Cc2ccc(-c3ccc(F)c(CN4CCCCC4)n3)cc2)C1=O	3.4	8.6	
O=C1CN(Cc2ccc(-c3ccc(F)c(CN4CCCCC4)n3)cc2)C(=O)N1C1CC1	2	8.6	
O=C1CN(Cc2ccc(-c3ccc(F)c(CN4CCCCC4)n3)cc2)C(=O)N1CC1CC1	2.8	8.5	
O=C1CN(Cc2ccc(-c3ccc(F)c(CN4CCCCC4)n3)cc2)C(=O)N1CC1CCC1	3.5	8.6	
O=C1CN(Cc2ccc(-c3ccc(F)c(CN4CCCCC4)n3)cc2)C(=O)N1CC(F)F	1.9	9	
CC(C)CN1C(=O)CN(Cc2ccc(-c3cccc(CN4CCCC(C)C4)n3)cc2)C1=O (centres undefined)	3.4	8.7	
CC(C)CN1C(=O)CN(Cc2ccc(-c3ccc(F)c(CN4CCCC(C)C4)n3)cc2)C1=O (centres undefined)	3.9	8.4	
CC(C)CN1C(=O)CN(Cc2ccc(-c3cccc(CN4CCCC(F)C4)n3)cc2)C1=O (centres undefined)	3.7	7.4	
CC(C)CN1C(=O)CN(Cc2ccc(-c3ccc(F)c(CN4CCCC(F)C4)n3)cc2)C1=O (centres undefined)	4.1	7.2	
CC(C)CN1C(=O)CN(Cc2ccc(-c3ccc(F)c(CN4CCOCC4)n3)cc2)C1=O	3.4	6	
CC(C)CN1C(=O)CN(Cc2ccc(-c3cccc(CN4CCCC(F)(F)C4)n3)cc2)C1=O	4.5	5.3	
CC(C)CN1C(=O)CN(Cc2ccc(-c3ccc(F)c(CN4CCCC(F)(F)C4)n3)cc2)C1=O	4.7	5	
CC(C)CN1C(=O)CN(Cc2ccc(-c3cccc(CN4CCS(=O)(=O)CC4)n3)cc2)C1=O	3	3.7	
CC(C)CN1C(=O)CN(Cc2ccc(-c3ccc(F)c(CN4CCS(=O)(=O)CC4)n3)cc2)C1=O	3	3	
CCN1C(=O)CN(Cc2ccc(-c3cccc(CC4CCCCC4)n3)cc2)C1=O	5.6		
O=C1CN(Cc2ccc(-c3ccc(F)c(CN4CCS(=O)(=O)CC4)n3)cc2)C(=O)N1C1CC1	1	2.8	Kp at 4 h (in vivo [7]): 0.05; bioavailability [1]: 100%; Papp at 1 h, 20 µM [4]: 17.3 ×10⁻⁶ cm/s; Vd [5]: 0.94 L/kg; Cmax [6]: 3800 nM; Kp at 4 h (in vivo [8]): 0.14; fCmax (Rattus norvegicus): 1.7 µM
